Assay results from patent US20130267494A1, “1,4-OXAZEPANE DERIVATIVES” (priority 2010, published 2013).
Where a name gives a salt, the structure may show the parent alone.

Columns and labels:
Type in all cases: cell-based
[1] = biological target: T1, human dopamine transporter (Homo sapiens, UniProt Q01959); assay: Inhibitory action on human dopamine transporter ([3H]-dopamine uptake in CHO cells); conditions: relative to inhibitory activity of 100 μM Nomifensine as 100%; for inhibition at 1 µM / inhibition at 10 µM: CHO, read-out: inhibitory rate (%)
T1 construct: expressed in transfected cells
Text: SRα promoter contained in pTB1411 described in JP-A-H5-076385 was cleaved with restriction enzyme […](manufactured by TAKARA BIO INC.), blunt-ended, further cleaved with restriction enzyme EcoRI (manufactured by TAKARA BIO INC.), and fragmented. On the other hand, pCI vector was cleaved with restriction enzyme BglII (manufactured by TAKARA BIO INC.), blunt-ended with T4 DNA polymerase, and further cleaved with restriction enzyme EcoRI (manufactured by TAKARA BIO INC.). Into this site was inserted an SRa promoter fragment to give pCI-SRa. Then, pCI-SRa was cleaved with restriction enzyme ClaI (manufactured by TAKARA BIO INC.) and blunt-ended. Into this site was inserted a 1.63 Kb fragment obtained by cleaving pGFP-C1 (manufactured by TOYOBO) with restriction enzyme Bsu36I (manufactured by Daiichi Pure Chemicals Co., Ltd.) followed by blunt-ending, whereby pMSRα neo was prepared. Human dopamine transporter cDNA was amplified from human substantia nigra cDNA library by PCR, and inserted into the pCRII vector (manufactured by Invitrogen). The base sequence was confirmed, modified and subcloned to pMSRα neo, whereby a human dopamine transporter expression plasmid was constructed.
(§1) The monoamine transporter expression plasmids thus prepared were introduced into CHO-K1 cells using FuGENE6 (manufactured by Roche Diagnostics) and according to the attached protocol, whereby each expressing cell was established.
CHO cells stably expressing human dopamine transporter were used for the measurement of human dopamine transporter inhibitory activity. Unless otherwise indicated, these CHO cells were cultured in Ham/F12 medium (Invitrogen) containing 10% fetal bovine serum (MOREGATE).
(§2) One day before the assay, the cultured cells that reached almost confluent were rinsed with PBS (Invitrogen), detached with Trypsin/EDTA (Invitrogen), and collected by a centrifugal operation. The obtained cells were counted, and diluted to 3×10^5 cells per 1 mL medium, and the mixture was dispensed to a 96 well white plate (Corning) at 100 μL per well, and cultured overnight in a CO2 incubator.
(§3) On the day of the test, an assay buffer (126 mM NaCl, 4.95 mM KCl, 1.26 mM KH2PO4, 1.26 mM MgSO4, 10 mM HEPES, 2.32 mM CaCl2, 5.52 mM Glucose, 0.5% BSA) was prepared, the medium in the cell plate was removed and the assay buffer was added by 80 μL. A test compound was diluted with the assay buffer to a 10-fold concentration of the final concentration, and the mixture was dispensed to a 96 well polypropylene plate. The diluted test compound was dispensed to the cell plate by 10 μL. [3H]-Dopamine (GE Healthcare) was diluted with the assay buffer to 200 nM, cold dopamine was diluted to 10 μM, and the mixture was dispensed to the cell plate by 10 μL. At 60 min from [3H]-dopamine addition, the assay buffer was removed by suction, and the plate was washed twice with 150 μL of PBS (Invitrogen) per well. Microscinti20 (PerkinElmer) was dispensed to each well by 100 μL, and the mixture was stirred for about 30 min. The radioactivity was measured by TopCount (PerkinElmer).
The inhibitory activity of each compound (10 μM) was calculated as a relative activity value based on the inhibitory activity of 100 μM Nomifensine (dopamine transporter inhibitor) as 100%.
The inhibitory activity of each compound (1 μM) was m calculated as a relative activity value based on the inhibitory activity of 100 μM Nomifensine (dopamine transporter inhibitor) as 100%.

[2] = biological target: T2, human norepinephrine transporter (Homo sapiens, UniProt P23975); assay: Inhibitory action on human norepinephrine transporter ([3H]-norepinephrine uptake in CHO cells); conditions: relative to inhibitory activity of 10 μM DMI as 100%; for inhibition at 1 µM / inhibition at 10 µM: CHO, read-out: inhibitory rate (%)
T2 construct: expressed in transfected cells
Text: (§4) Human serotonin transporter cDNA was amplified from human brain cDNA library by PCR, and inserted into pCRII-TOPO vector (manufactured by Invitrogen). The base sequence was confirmed and modified, and subcloned to pcDNA3.1 vector (manufactured by Invitrogen), whereby a human serotonin transporter expression plasmid was constructed. Human norepinephrine transporter cDNA was purchased from Invitrogen, and the base sequence was confirm and modified, and subcloned to pcDNA3.1 vector, whereby a human norepinephrine transporter expression plasmid was constructed.
as §1
CHO cells stably expressing human norepinephrine transporter were used for the measurement of human norepinephrine transporter inhibitory activity. Unless otherwise indicated, these CHO cells were cultured in Ham/F12 medium (Invitrogen) containing 10% fetal bovine serum (MOREGATE).
as §2, with “The” for “One day before the assay, the”
as §3, with “Then,” for “On the day of the test,”, “[3H]-Norepinephrine” for “[3H]-Dopamine”, “nM,” for “nM, cold dopamine was diluted to 10 μM,”, “45” for “60”, “[3H]-norepinephrine” for “[3H]-dopamine”
The inhibitory activity of each compound (10 μM) was calculated as a relative activity value based on the inhibitory activity of 10 μM DMI (norepinephrine transporter inhibitor) as 100%.
The inhibitory activity of each compound (1 μM) was calculated as a relative activity value based on the inhibitory activity of 10 μM DMI (norepinephrine transporter inhibitor) as 100%.

[3] = biological target: T3, human serotonin transporter (Homo sapiens, UniProt P31645); assay: Inhibitory action on human serotonin transporter ([3H]-5-hydroxytryptamine uptake in CHO cells); conditions: relative to inhibitory activity of 10 μM Paroxetine as 100%; for inhibition at 1 µM / inhibition at 10 µM: CHO, read-out: inhibitory rate (%)
T3 construct: expressed in transfected cells
Text: as §4, §1
CHO cells stably expressing a human serotonin transporter were used for the measurement of human serotonin transporter inhibitory activity. Unless particularly indicated, these CHO cells were cultured in a Ham/F12 medium (Invitrogen) containing 10% fetal bovine serum (MOREGATE).
as §2, with “The” for “One day before the assay, the”, “medium,” for “medium, and”
as §3, with “Then,” for “On the day of the test,”, “[3H]-5-Hydroxytryptamine” for “[3H]-Dopamine”, “nM,” for “nM, cold dopamine was diluted to 10 μM,”, “20” for “60”, “[3H]-5-hydroxytryptamine” for “[3H]-dopamine”
The inhibitory activity of each compound (10 μM) was calculated as a relative activity value based on the inhibitory activity of 10 μM Paroxetine (serotonin transporter inhibitor) as 100%.
In addition, the inhibitory activity of each compound (1 μM) was calculated as a relative activity value based on the inhibitory activity of 10 μM Paroxetine (serotonin transporter inhibitor) as 100%.

[4] = compound 10 μM, CHO cells expressing human serotonin transporter

T2 sequence (P23975 whole entry): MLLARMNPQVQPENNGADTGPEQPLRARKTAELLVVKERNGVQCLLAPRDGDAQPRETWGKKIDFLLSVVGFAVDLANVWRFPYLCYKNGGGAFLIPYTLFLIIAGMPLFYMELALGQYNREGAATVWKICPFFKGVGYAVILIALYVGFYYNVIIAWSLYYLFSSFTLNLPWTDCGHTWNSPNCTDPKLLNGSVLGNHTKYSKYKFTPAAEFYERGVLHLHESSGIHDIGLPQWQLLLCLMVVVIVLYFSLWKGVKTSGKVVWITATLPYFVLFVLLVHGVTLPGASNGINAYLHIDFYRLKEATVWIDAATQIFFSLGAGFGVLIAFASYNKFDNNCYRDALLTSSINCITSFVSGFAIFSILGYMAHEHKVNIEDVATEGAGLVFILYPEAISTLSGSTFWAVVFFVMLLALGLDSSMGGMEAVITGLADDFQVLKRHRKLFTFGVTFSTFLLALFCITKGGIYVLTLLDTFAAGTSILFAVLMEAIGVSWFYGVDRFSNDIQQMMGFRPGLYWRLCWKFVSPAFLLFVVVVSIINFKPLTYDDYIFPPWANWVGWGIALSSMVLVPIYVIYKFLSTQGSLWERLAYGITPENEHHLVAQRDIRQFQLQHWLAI
T3 sequence (P31645 whole entry): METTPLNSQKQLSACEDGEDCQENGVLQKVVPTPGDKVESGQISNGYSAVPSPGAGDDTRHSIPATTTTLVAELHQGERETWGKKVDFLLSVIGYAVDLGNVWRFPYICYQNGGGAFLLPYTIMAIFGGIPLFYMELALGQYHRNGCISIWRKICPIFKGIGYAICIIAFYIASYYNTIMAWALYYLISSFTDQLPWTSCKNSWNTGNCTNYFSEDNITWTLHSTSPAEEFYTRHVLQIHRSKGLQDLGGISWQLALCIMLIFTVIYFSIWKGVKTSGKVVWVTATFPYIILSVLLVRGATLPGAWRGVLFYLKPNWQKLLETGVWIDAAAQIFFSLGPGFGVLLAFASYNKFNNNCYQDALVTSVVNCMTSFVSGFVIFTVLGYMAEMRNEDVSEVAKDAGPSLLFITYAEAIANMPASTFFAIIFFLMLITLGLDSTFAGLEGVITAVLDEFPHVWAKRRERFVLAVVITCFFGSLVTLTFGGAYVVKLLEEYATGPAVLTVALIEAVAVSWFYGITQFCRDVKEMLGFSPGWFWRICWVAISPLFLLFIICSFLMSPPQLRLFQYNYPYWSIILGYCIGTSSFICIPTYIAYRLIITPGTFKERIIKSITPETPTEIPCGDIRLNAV
T1 sequence (Q01959 whole entry): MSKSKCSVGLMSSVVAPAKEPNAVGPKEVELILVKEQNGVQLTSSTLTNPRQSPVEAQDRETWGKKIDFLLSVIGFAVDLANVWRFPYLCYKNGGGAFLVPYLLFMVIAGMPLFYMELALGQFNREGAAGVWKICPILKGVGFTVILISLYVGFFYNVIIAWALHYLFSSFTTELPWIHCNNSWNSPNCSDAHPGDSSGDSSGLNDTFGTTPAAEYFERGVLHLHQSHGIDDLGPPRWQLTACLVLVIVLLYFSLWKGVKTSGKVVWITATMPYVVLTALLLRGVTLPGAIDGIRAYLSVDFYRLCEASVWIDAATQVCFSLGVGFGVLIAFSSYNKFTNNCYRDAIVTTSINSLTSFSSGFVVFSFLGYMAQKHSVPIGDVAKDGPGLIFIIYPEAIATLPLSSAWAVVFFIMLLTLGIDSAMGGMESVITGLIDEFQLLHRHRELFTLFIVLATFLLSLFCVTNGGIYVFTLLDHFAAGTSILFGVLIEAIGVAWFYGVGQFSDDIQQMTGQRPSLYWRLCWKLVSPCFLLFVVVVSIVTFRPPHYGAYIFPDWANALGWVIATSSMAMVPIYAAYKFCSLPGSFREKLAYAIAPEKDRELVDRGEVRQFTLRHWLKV

In the case of `CS(=O)(=O)C[C@H]1CNCCOC1c1ccc(F)c(Cl)c1` (mixture of isomers) [Example 12, (6RS,7SR)-7-(3-chloro-4-fluorophenyl)-6-[(methylsulfonyl)methyl]-1,4-oxazepane monohydrochloride], the inhibition at 1 µM ([1]; compound 1 μM) is reported as 39%, the inhibition at 10 µM ([1]; compound 10 μM) is reported as 90% and the inhibition at 1 µM ([2]; compound 1 μM) is reported as 97%. For the same compound, the inhibition at 10 µM ([2]; compound 10 μM) was 100%, the inhibition at 1 µM ([3]; compound 1 μM) was 87% and the inhibition at 10 µM [3, 4] was 97%.
`OC[C@H]1NCCOC[C@@H]1c1ccc(Cl)c(Cl)c1` (racemic) [Example 14, [(5RS,6SR)-6-(3,4-dichlorophenyl)-1,4-oxazepan-5-yl]methanol monohydrochloride] was tested, and the “inhibitory rate (%)” value ([1]; compound 1 μM) was 87%, the “inhibitory rate (%)” value ([1]; compound 10 μM) was 99% and the “inhibitory rate (%)” value ([2]; compound 1 μM) was 98%. The “inhibitory rate (%)” value ([2]; compound 10 μM) was 100%, the “inhibitory rate (%)” value ([3]; compound 1 μM) was 31% and the “inhibitory rate (%)” value [3, 4] was 79%.
In the case of `COC1(c2ccc(Cl)c(Cl)c2)CNCCOC1` (racemic) [Example 17, (6RS)-6-(3,4-dichlorophenyl)-6-methoxy-1,4-oxazepane monohydrochloride], the inhibition at 1 µM ([1]; compound 1 μM) is reported as 19%, the inhibition at 10 µM ([1]; compound 10 μM) is reported as 53% and the inhibition at 1 µM ([2]; compound 1 μM) is reported as 75%. The inhibition at 10 µM ([2]; compound 10 μM) was 97%, the inhibition at 1 µM ([3]; compound 1 μM) was 70% and the inhibition at 10 µM [3, 4] was 96%.
`NS(=O)(=O)NCC1(c2ccc(Cl)c(Cl)c2)CCNCCO1` (racemic) [Example 22, N-{[(7RS)-7-(3,4-dichlorophenyl)-1,4-oxazepan-7-yl]methyl}sulfamide monohydrochloride] was tested, and the inhibition at 1 µM ([1]; compound 1 μM) was 25%, the inhibition at 10 µM ([1]; compound 10 μM) was 63% and the inhibition at 1 µM ([2]; compound 1 μM) was 97%. It also gave an inhibition at 10 µM ([2]; compound 10 μM) of 99%, an inhibition at 1 µM ([3]; compound 1 μM) of 82% and an inhibition at 10 µM [3, 4] of 98%.
For `CS(=O)(=O)NCC1(c2ccc(Cl)c(Cl)c2)CNCCCO1` (racemic) [Example 24, N-{[(2RS)-2-(3,4-dichlorophenyl)-1,4-oxazepan-2-yl]methyl}methanesulfonamide monohydrochloride], the inhibition at 1 µM ([1]; compound 1 μM) was 20%, the inhibition at 10 µM ([1]; compound 10 μM) was 50% and the inhibition at 1 µM ([2]; compound 1 μM) was 94%. The inhibition at 10 µM ([2]; compound 10 μM) was 99%, the inhibition at 1 µM ([3]; compound 1 μM) was 87% and the inhibition at 10 µM [3, 4] was 99%.
In the case of `OC[C@H]1OCCNC[C@H]1c1ccc(Cl)c(Cl)c1` (racemic) [Example 25, [(6RS,7SR)-6-(3,4-dichlorophenyl)-1,4-oxazepan-7-yl]methanol monohydrochloride], the inhibition at 1 µM ([1]; compound 1 μM) is reported as 46%, the inhibition at 10 µM ([1]; compound 10 μM) is reported as 94% and the inhibition at 1 µM ([2]; compound 1 μM) is reported as 99%. It also gave an inhibition at 10 µM ([2]; compound 10 μM) of 100%, an inhibition at 1 µM ([3]; compound 1 μM) of 29% and an inhibition at 10 µM [3, 4] of 65%.
In the case of `CS(=O)(=O)C[C@@H]1CNCCO[C@@H]1c1ccc(Cl)c(Cl)c1` (racemic) [Example 50, (6RS,7SR)-7-(3,4-dichlorophenyl)-6-[(methylsulfonyl)methyl]-1,4-oxazepane monohydrochloride], the inhibition at 1 µM ([1]; compound 1 μM) is reported as 64%, the inhibition at 1 µM ([2]; compound 1 μM) is reported as 98% and the inhibition at 1 µM ([3]; compound 1 μM) is reported as 100%.
With `CCNC(=O)NC[C@@H]1CNCCO[C@@H]1c1ccc(Cl)c(Cl)c1` (racemic) [Example 52, 1-{[(6RS,7RS)-7-(3,4-dichlorophenyl)-1,4-oxazepan-6-yl]methyl}-3-ethylurea monohydrochloride] the inhibition at 1 µM ([1]; compound 1 μM) was 29%, the inhibition at 1 µM ([2]; compound 1 μM) was 97% and the inhibition at 1 µM ([3]; compound 1 μM) was 99%.
`CC(=O)N[C@@H]1CNCCO[C@@H]1c1ccc(Cl)c(Cl)c1` (racemic) [Example 62, N-[(6RS,7RS)-7-(3,4-dichlorophenyl)-1,4-oxazepan-6-yl]acetamide monohydrochloride] gave an inhibition at 1 µM ([1]; compound 1 μM) of 64%, an inhibition at 1 µM ([2]; compound 1 μM) of 100% and an inhibition at 1 µM ([3]; compound 1 μM) of 98%.
Work on `CS(=O)(=O)N[C@@H]1CNCCO[C@@H]1c1ccc(Cl)c(Cl)c1` (racemic) [Example 63, N-[(6RS,7RS)-7-(3,4-dichlorophenyl)-1,4-oxazepan-6-yl]methanesulfonamide monohydrochloride] yielded an inhibition at 1 µM ([1]; compound 1 μM) of 82%, an inhibition at 1 µM ([2]; compound 1 μM) of 100% and an inhibition at 1 µM ([3]; compound 1 μM) of 93%.
